Data published in patent US10676754B2, “Compositions and methods for producing plants resistant to glyphosate herbicide” (E I DU PONT DE NEMOURS AND COMPANY, priority 2014, dated 2020).

B1: I-SceI: wild type yeast I-SceI homing nuclease (protein, UniProt P03882 1-235, looked up)
Intron-encoded endonuclease …: MKNIKKNQVMNLGPNSKLLKEYKSQLIELNIEQFEAGIGLILGDAYIRSRDEGKTYCMQFEWKNKAYMDHVCLLYDQWVLSPPHKKERVNHLGNLVITWGAQTFKHQAFNKLANLFIVNNKKTIPNNLVENYLTPMSLAYWFMDDGGKWDYNKNSTNKSIVLNTQSFTFEEVEYLVKGLRNKFQLNCYVKINKNKPIIYIDSMSYLIFYNLIKPYLIPQMMYKLPNTISSETFLK

Columns and labels:
[1] = tested on: F2 maize embryos; experiment: Embryo rescue: germination of F2 embryos on rooting media containing glyphosate; format: in vivo
Method: For embryo rescue of the F2 progeny seedlings from selfed F1 plants, ears were harvested 18 days after pollination and sterilized in 20:80 bleach/water mix. Embryos were excised and placed on rooting media (272V—4.3 g/L Murashige and Skoog basal salt mixture, 5.0 ml/L MS vitamins stock solution, 100 mg/L mio-inositol, 40 g/L sucrose, 6 g/L Bacto Agar) with or without glyphosate at 0.1 mM, 0.5 mM, 1 mM, 3 mM concentration. They were transferred to a light room at 26° C. and allowed to germinate for 7 days. Embryos containing the wild-type EPSPS alleles, hemizygous and homozygous for the epsps-TIPS allele germinated on media without glyphosate. […] The presence of the epsps-TIPS allele in the analyzed seedlings is indicated as “positive” or “negative”, while the wild-type EPSPS allele copy number is indicated in the columns to the right (Table 14)

[2] = tested on: maize plants; experiment: Glyphosate spray test on maize plants at V3 growth stage; format: in vivo
Method: TO plants grew well in the greenhouse and were fertile. A sample of TO plants was sprayed with a 1× dose of glyphosate at V3 growth stage using the spray booth setting of 20 gallons per acre. The 1× dose of glyphosate was prepared as follow: 2.55 ml Powermax in 300 ml water (active ingredient: glyphosate, N-(phosphonomethyl) glycine, in the form of its potassium salt at 48.7%). […] This TO plant was designated as hemizygous at the epsps locus.
A random sample of the F1 plants progeny of the E1 and E2 parental plants) was sprayed with 2.55 ml Powermax (glyphosate solution) in 300 ml water at the setting of 20 gallons per acre at the V3 stage of growth.

[3] = tested on: artificial I-SceI recognition site in maize genome; conditions: analyzed F1 plants, transgenic nuclease introduced by crossing and activated by gene excision; cited from earlier work
[4] = epsps-TIPS-containing F1 plants after spray

| Molecule | green seedling production ([1]; 0.1 mM in rooting media, 7 days, 26° C., F2 embryos) | wild-type seedlings among germinating embryos ([1]; 0.1 mM or any other concentration up to 3 mM in media) | green seedling production ([1]; embryos homozygous for the epsps-TIPS allele, 1.0 mM) | green seedling production ([1]; hemizygous embryos, 1.0 mM) | survival of plants ([2]; F1 plants containing the epsps-TIPS edited allele, 2.55 ml Powermax in 300 ml water, 20 gallons per acre, V3) | leaf tissue damage ([2]; F1 plants without the epsps-TIPS allele, 2.55 ml Powermax in 300 ml water, 20 gallons per acre, V3) | leaf tissue damage ([2]; T0 plants hemizygous for epsps-TIPS alleles, 1× dose, V3, 20 gallons per acre, seven days after application) | growth of plants [2, 4] | leaf symptoms over time [2, 4] | leaf tissue damage ([2]; one T0 plant hemizygous at the epsps locus, 1× dose, 14 days after application) | leaf tissue damage ([2]; other T0 plantlets, 1× dose, V3, 20 gallons per acre, seven days after application) | tolerance of plants ([2]; some epsps-TIPS edited maize T0 plants, 1× dose) | plants with mutations of the recognition sequence [3] [%] |
| --- | --- | --- | --- | --- | --- | --- | --- | --- | --- | --- | --- | --- | --- |
| O=C(O)CNCP(=O)(O)O [glyphosate, N-phosphonomethylglycine] | only embryos containing the epsps-TIPS alleles produced green seedlings | No wild-type seedlings were detected | produced green seedlings | did not | survived | severe leaf tissue damage | no leaf tissue damage | slowed down | bleached sectors of the leaf tissue on newly emerging leaves | no damage to the leaf tissue | severely damaged | some level of tolerance | – |
| B1 | – | – | – | – | – | – | – | – | – | – | – | – | 1 |
